Source: patent publication US20220153780A1, “SALT FORMS OF S-(N, N-DIETHYLCARBAMOYL)GLUTATHIONE” (Tonix Pharma Holdings Limited, priority 2019, published 2022)

What was measured:
[1] = Visual solubility of free carbamathione in water and common organic solvents; format: physicochemical
Protocol: Initially, the solubility of free carbamathione was evaluated in water and in common organic solvents. The common organic solvents tested included dichloromethane (DCM), methanol, ethyl acetate, ethanol, acetonitrile, acetone, 2-propanol, and N,N-dimethylformamide.
For each solvent the solubility of carbamathione was assessed by weighing out 50 mg of carbamathione into a stoppered tube followed by the addition of 0.05 mL of the test solvent to the tube. The mixture underwent vigorous shaking for 1 minute, and was placed in a constant temperature device for 15 minutes at 25.0±0.5° C. If the carbamathione was not completely dissolved, vigorous shaking was repeated for 1 minute and then placed in a constant temperature device for an additional 15 minutes. If the carbamathione was not fully dissolved, additional solvent was added portion-wise until dissolution of carbamathione was observed. If complete dissolution was not observed, the solution was heated until the boiling point under stirring to verify the solubility at high temperature. The solvents were classified according to the visual solubility determined into the groups described in Table 6.

[2] = system: high alcohol-drinking-1 (HAD1) rats; test: 2-hour ethanol intake by adult male HAD1 rats after IP carbamathione; format: in vivo; conditions: IP 100, 200, 400 mg/kg, saline with 0.25% Tween 80 vehicle
Protocol: The efficacy of carbamathione in reducing ethanol intake of rats was assessed. Adult male alcohol-preferring rats (P rats) and high alcohol-drinking-1 (HAD1) rats (˜75 days of age at the start) were used in this study. These rats underwent an 8-week acquisition/acclimation period of concurrent free-choice access to 15% and 30% ethanol. Animals were initiated with 24-hour access, which was titrated down to 2 hours per day for 5 days (Monday-Friday)/week access. Ethanol access began at the beginning of the dark cycle (10:00 h) in a room maintained on a reverse dark-light cycle (10:00 h to 22:00 h lights out).
After the acquisition period, the animals underwent three weeks of testing. Four doses were tested: 0, 100, 200, and 400 mg/kg/day. Sterile isotonic (0.9% normal) saline with 0.25% Tween® 80 was used as the vehicle for all doses. Injection solutions were prepared approximately 1 hour prior to each administration.
The carbamathione solution was maintained at −20° C. until mixing the solutions each day. Adding the carboxyl-associated compound helped dissolve the carbamathione solid, which was pulverized by mortar and pestle with 50 μl Tween® 80, resulting in a pH of 3.5. […] Doses were calculated at 3 ml/kg to allow for injection volume of 1.5 ml per 500 g rat. […]
Data were analyzed by Dose, by Test Day, and 2-way mixed ANOVAs on each rat line, followed by Dunnett t-test planned comparisons.

[3] = system: nucleus accumbens (NAc) and prefrontal cortex (PFC); conditions: intravenous administration, rats, Faiman et al., 2013; cited from earlier work

Solubility at HT ([1]; 2-Propanol, heated until the boiling point): No
Solubility at HT ([1]; Acetone, heated until the boiling point): No
Solubility at HT ([1]; Acetonitrile, heated until the boiling point): No
Solubility at HT ([1]; Dichloromethane, heated until the boiling point): No
Solubility at HT ([1]; Ethanol, heated until the boiling point): No
Solubility at HT ([1]; Ethyl Acetate, heated until the boiling point): No
Solubility at HT ([1]; Methanol, heated until the boiling point): No
Solubility at HT ([1]; N,N-Dimethylformamide, heated until the boiling point): No
Solubility at HT ([1]; Tetrahydrofuran, heated until the boiling point): No
Solubility at HT ([1]; Water, heated until the boiling point (100° C.)): Dissolved
solubility in water ([1]; only at high temperature): sparingly soluble
solubility in all of the common organic solvents ([1]; visual solubility): very slightly soluble
SMILES: CCN(CC)C(=O)SCC(NC(=O)CCC(N)C(=O)O)C(=O)NCC(=O)O (stereo not shown) [carbamathione, S—(N,N-diethylcarbamoyl)glutathione]
effect on 2-hour ethanol intake [2]: no effect
GABA [3]: decreases
dopamine (DA) [3]: increases
glutamate (Glu) [3]: biphasic effect
